# Data: ChEMBL document CHEMBL1122400, “A deuterium isotope effect on the inhibition of gastric secretion by N,N-dimethyl-N'-[2-(diisopropylamino)ethyl]-N'-(4,6-dimethyl-2-pyridyl)urea. Synthesis of metabolites” (1983)
# System: Canis familiaris
# Assay: Inhibition of gastric acid secretion in dogs stimulated by gastrin tetrapeptide when administered perorally
# Format: functional
# Conditions: Canis lupus familiaris, Stomach, po
row,SMILES,ED50 [µmol/kg]
1,[2H]C([2H])([2H])c1cc(C)nc(N(CCN(C(C)C)C(C)C)C(=O)N(C)C)c1,7.26
2,CN/C(=N\CCSCc1nc[nH]c1C)NC#N [CIMETIDINE],14.3
3,CC(C)N(CCN(C(=O)N(C)C)c1cc(C(F)(F)F)cc(C(F)(F)F)n1)C(C)C,43.9
4,Cc1cc(C)nc(N(CCN(C(C)C)C(C)C)C(=O)N(C)C)c1,15.3
5,Cc1cc(CO)nc(N(CCN(C(C)C)C(C)C)C(=O)N(C)C)c1,29.4
6,Cc1cc(CO)cc(N(CCN(C(C)C)C(C)C)C(=O)N(C)C)n1,23.3
